The test system of test [1] is leukemic and glioblastoma cells. Particulars: cited from earlier work.
In test [2] the test system is C. neoformans PKH2-01 and PKH2-02 deletion mutants. Put plainly: Disk diffusion assay, C. neoformans mutants. Particulars: 30° C. The format is cell-based, Cryptococcus neoformans. As to the method:
Plates were incubated at 30° C. for 3 days prior to photography.
The antifungal activity of protein kinase inhibitors was determined using the Clinical and Laboratory Science Institute microdilution protocol M-27A2. Biofilm antifungal activity was determined using the protocol of Pierce et al. and is reported as MIC50S (Pierce et al., Nat. Protoc. 3:1494-1500 (2008)). Disk diffusion assays were performed as described previously (Roelants et al., Microbiology 150:3289-304 (2004)).

Test [3] relates to CWI pathway reporter Rlm1-lacZ. Put plainly: β-Galactosidase CWI pathway reporter assay (Rlm1-lacZ). It is filed as cell-based. Particulars: sub-inhibitory concentrations (1/2 MIC), S. cerevisiae. As to the method: Bars indicate mean fold change in Miller units of β-galactosidase activity relative to logarithmic phase cells without calcofluor or PKI. Error bars indicate standard deviation of three independent trials performed in triplicate. […] The percentage of cells with PI uptake was determined by fluorescence.
Logarithmic phase S. cerevisiae (BY4741) cells harboring the pRLM1-lacZ plasmid were transferred to a 96-well plate, and treated with Calcofluor white ([…])+/−protein kinase inhibitor at sub-inhibitory concentrations (1/2MIC). The cells were incubated at room temperature for 5 hours and processed for β-galactosidase activity using the ThermoScientific Yeast β-galactosidase kit according to the manufacturer's instructions (Pierce; Rockford, Ill.). β-galactosidase activity was determined by measuring OD420 using a SpectraMax Plate reader (Molecular Devices) and expressed as fold change in Miller units (nmole/mg/min) relative to untreated cells. Each experiment was performed in duplicate with three independent isolates.
The novel, antifungal PKIs identified in the primary screen were evaluated for their ability to block CWI pathway signaling using a reporter construct that contains two copies of the consensus binding site for the CWI-pathway-regulated transcription factor Rlm1 fused to the β-galactosidase gene (Jung et al., Mol. Microbiol. 46:781-9 (2002)). […]
A general note: Reporter assays use an easily measured gene product as a stand-in for the process of interest.

Test [4] relates to eisosomes in S. cerevisiae cells. Put plainly: Eisosome pattern by fluorescence microscopy (Pil1-GFP). The format is cell-based. The conditions noted are these: KP-372-1 (1/2 MIC), within one hour of treatment, versus DMSO. As to the method:
Light and fluorescence microscopy was performed using a Nikon ES80 epi-fluorescence microscope equipped with a CoolSnap CCD camera. Images were collected using NIS-Elements Software and processed in PhotoShop. All images were collected with identical exposure settings and equally processed with respect to tone and contrast.
The micrographs of the KP-372-1-treated cells closely match those previously reported (Luo et al., J. Biol. Chem. 283:10433-44 (2008)) and, consequently, support a model in which Pil1 phosphorylation is required for eisosome assembly/stabilization.

The test system of another test is human protein kinases. Particulars: large panel of human protein kinases; cited from earlier work.

Structures are written as SMILES.

Turning to `O=C1c2ccccc2-c2nc3nnnn3nc21.O=C1c2ccccc2-c2nn3nnnc3nc21` [KP-372-1], in test [1], the “activity against leukemic and glioblastoma cells” value was “potent activity”. Besides, the figures for the “sensitivity versus wild type” value in test [2] (C. neoformans PKH2-01 mutant) and in test [2] (C. neoformans PKH2-02 mutant) were “slightly more sensitive” and “significantly more sensitive”, respectively. Also, in test [3], the “Rlm1-lacZ reporter activity induced by Calcofluor white” value is given as “completely abolished reporter activity”. In addition, in test [4], the “number of peripheral eisosomes” value is listed as “dramatically decreased”. Besides, the “selectivity for a limited number of human kinases” value in the test on human protein kinases is “at least 10 fold”.
